According to PubChem BioAssay (NCI):
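Briefly, cells in 96-well plates were exposed to five compound concentrations for 48 h, and endpoints were estimated by linear interpolation. GI50 is the concentration that inhibits growth by half. TGI marks complete inhibition of growth.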

Assays:
Assay in all cases: growth of human tumour cells (NCI), 48 h
SR leukemia = tested on: SR leukemia
IGROV1 ovarian = tested on: IGROV1 ovarian
MDA-MB-231 breast = tested on: MDA-MB-231 breast
LOX IMVI melanoma = tested on: LOX IMVI melanoma
NCI-H226 lung = tested on: NCI-H226 lung
K-562 leukemia = tested on: K-562 leukemia
PC-3 prostate = tested on: PC-3 prostate
HOP-92 NSCLC = tested on: HOP-92 NSCLC
A549 NSCLC = tested on: A549 NSCLC
BT-549 breast = tested on: BT-549 breast
TK-10 renal = tested on: TK-10 renal
SK-MEL-2 melanoma = tested on: SK-MEL-2 melanoma
UACC-62 melanoma = tested on: UACC-62 melanoma
HL-60(TB) leukemia = tested on: HL-60(TB) leukemia
SF-539 CNS = tested on: SF-539 CNS
OVCAR-4 ovarian = tested on: OVCAR-4 ovarian
NCI/ADR-RES ovarian = tested on: NCI/ADR-RES ovarian
NCI-H460 lung = tested on: NCI-H460 lung
HT29 colon = tested on: HT29 colon
MDA-MB-435 = tested on: MDA-MB-435
SN12C renal = tested on: SN12C renal
SW-620 colon = tested on: SW-620 colon
UO-31 renal = tested on: UO-31 renal
OVCAR-8 ovarian = tested on: OVCAR-8 ovarian
U251 CNS = tested on: U251 CNS
SF-295 CNS = tested on: SF-295 CNS
M14 melanoma = tested on: M14 melanoma
KM12 colon = tested on: KM12 colon
OVCAR-3 ovarian = tested on: OVCAR-3 ovarian
SF-268 CNS = tested on: SF-268 CNS
ACHN renal = tested on: ACHN renal
CCRF-CEM leukemia = tested on: CCRF-CEM leukemia
HS 578T breast = tested on: HS 578T breast
DU-145 prostate = tested on: DU-145 prostate
COLO 205 colon = tested on: COLO 205 colon
T-47D breast = tested on: T-47D breast
EKVX NSCLC = tested on: EKVX NSCLC
OVCAR-5 ovarian = tested on: OVCAR-5 ovarian
NCI-H522 lung = tested on: NCI-H522 lung
RXF 393 renal = tested on: RXF 393 renal
SK-MEL-28 melanoma = tested on: SK-MEL-28 melanoma
MOLT-4 leukemia = tested on: MOLT-4 leukemia
MALME-3M melanoma = tested on: MALME-3M melanoma
RPMI-8226 leukemia = tested on: RPMI-8226 leukemia
SK-MEL-5 melanoma = tested on: SK-MEL-5 melanoma
NCI-H23 lung = tested on: NCI-H23 lung
SNB-19 CNS = tested on: SNB-19 CNS
HCT-15 colon = tested on: HCT-15 colon
HOP-62 NSCLC = tested on: HOP-62 NSCLC
786-0 renal = tested on: 786-0 renal
SNB-75 CNS = tested on: SNB-75 CNS
SK-OV-3 ovarian = tested on: SK-OV-3 ovarian
CAKI-1 renal = tested on: CAKI-1 renal

For `COc1ccc(C(=S)N(C)NC(=O)CC(=O)NN(C)C(=S)c2ccc(OC)cc2)cc1`, which GI50 (SR leukemia) is on record?
Its GI50 is over 100 µM.

And the TGI (SR leukemia)?
The TGI was over 100 µM.

What about the GI50 (IGROV1 ovarian) of the same compound?
Its GI50 is 54.4 µM.

What about the TGI (IGROV1 ovarian) of the same compound?
The TGI was over 100 µM.

And the GI50 (MDA-MB-231 breast)?
The GI50 was over 100 µM.

What about the TGI (MDA-MB-231 breast) of the same compound?
The TGI was over 100 µM.

And the GI50 (LOX IMVI melanoma)?
Its GI50 is 28.9 µM.

What about the TGI (LOX IMVI melanoma) of the same compound?
Its TGI is over 100 µM.

What about the GI50 (NCI-H226 lung) of the same compound?
The GI50 was 49.8 µM.

And the TGI (NCI-H226 lung)?
The TGI was over 100 µM.

And the GI50 (K-562 leukemia)?
Its GI50 is 59.4 µM.

And the TGI (K-562 leukemia)?
The TGI was over 100 µM.

And the GI50 (PC-3 prostate)?
Its GI50 is 26.1 µM.

What about the TGI (PC-3 prostate) of the same compound?
Its TGI is over 100 µM.

And the GI50 (HOP-92 NSCLC)?
Its GI50 is 0.283 µM.

What about the TGI (HOP-92 NSCLC) of the same compound?
The TGI was over 100 µM.

And the GI50 (A549 NSCLC)?
Its GI50 is 24.5 µM.

What about the TGI (A549 NSCLC) of the same compound?
The TGI was over 100 µM.

What about the GI50 (BT-549 breast) of the same compound?
Its GI50 is 50.3 µM.

What about the TGI (BT-549 breast) of the same compound?
The TGI was over 100 µM.

What about the GI50 (TK-10 renal) of the same compound?
The GI50 was 67 µM.

And the TGI (TK-10 renal)?
The TGI was over 100 µM.

What about the GI50 (SK-MEL-2 melanoma) of the same compound?
The GI50 was 79.6 µM.

And the TGI (SK-MEL-2 melanoma)?
The TGI was over 100 µM.

What about the GI50 (UACC-62 melanoma) of the same compound?
The GI50 was 37 µM.

And the TGI (UACC-62 melanoma)?
Its TGI is over 100 µM.

And the GI50 (HL-60(TB) leukemia)?
The GI50 was over 100 µM.

What about the TGI (HL-60(TB) leukemia) of the same compound?
Its TGI is over 100 µM.

What about the GI50 (SF-539 CNS) of the same compound?
Its GI50 is 51.9 µM.

And the TGI (SF-539 CNS)?
Its TGI is over 100 µM.

What about the GI50 (OVCAR-4 ovarian) of the same compound?
Its GI50 is 31.7 µM.

And the TGI (OVCAR-4 ovarian)?
The TGI was over 100 µM.

And the GI50 (NCI/ADR-RES ovarian)?
The GI50 was 29.1 µM.

And the TGI (NCI/ADR-RES ovarian)?
Its TGI is over 100 µM.

What about the GI50 (NCI-H460 lung) of the same compound?
The GI50 was 18.1 µM.

What about the TGI (NCI-H460 lung) of the same compound?
Its TGI is over 100 µM.

What about the GI50 (HT29 colon) of the same compound?
The GI50 was 39.1 µM.

What about the TGI (HT29 colon) of the same compound?
Its TGI is over 100 µM.

What about the GI50 (MDA-MB-435) of the same compound?
Its GI50 is 59.9 µM.

And the TGI (MDA-MB-435)?
The TGI was over 100 µM.

And the GI50 (SN12C renal)?
Its GI50 is 98 µM.

And the TGI (SN12C renal)?
The TGI was over 100 µM.

And the GI50 (SW-620 colon)?
Its GI50 is 33.3 µM.

What about the TGI (SW-620 colon) of the same compound?
The TGI was over 100 µM.

What about the GI50 (UO-31 renal) of the same compound?
Its GI50 is 24.9 µM.

And the TGI (UO-31 renal)?
The TGI was over 100 µM.

What about the GI50 (OVCAR-8 ovarian) of the same compound?
Its GI50 is 38.9 µM.

And the TGI (OVCAR-8 ovarian)?
The TGI was over 100 µM.

What about the GI50 (U251 CNS) of the same compound?
Its GI50 is 45.8 µM.

What about the TGI (U251 CNS) of the same compound?
The TGI was over 100 µM.

What about the GI50 (SF-295 CNS) of the same compound?
The GI50 was 1.63 µM.

What about the TGI (SF-295 CNS) of the same compound?
The TGI was 39 µM.

What about the GI50 (M14 melanoma) of the same compound?
Its GI50 is 33.5 µM.

What about the TGI (M14 melanoma) of the same compound?
Its TGI is over 100 µM.

And the GI50 (KM12 colon)?
The GI50 was 62.7 µM.

And the TGI (KM12 colon)?
The TGI was over 100 µM.

And the GI50 (OVCAR-3 ovarian)?
Its GI50 is 36.5 µM.

What about the TGI (OVCAR-3 ovarian) of the same compound?
The TGI was over 100 µM.

What about the GI50 (SF-268 CNS) of the same compound?
The GI50 was 43.2 µM.

And the TGI (SF-268 CNS)?
Its TGI is over 100 µM.

And the GI50 (ACHN renal)?
The GI50 was 50.7 µM.

And the TGI (ACHN renal)?
Its TGI is over 100 µM.

And the GI50 (CCRF-CEM leukemia)?
The GI50 was 23.4 µM.

And the TGI (CCRF-CEM leukemia)?
The TGI was over 100 µM.

What about the GI50 (HS 578T breast) of the same compound?
The GI50 was 24.4 µM.

What about the TGI (HS 578T breast) of the same compound?
Its TGI is 82.6 µM.

And the GI50 (DU-145 prostate)?
Its GI50 is 46.9 µM.

What about the TGI (DU-145 prostate) of the same compound?
The TGI was over 100 µM.

And the GI50 (COLO 205 colon)?
Its GI50 is 12.8 µM.

What about the TGI (COLO 205 colon) of the same compound?
The TGI was 70.8 µM.

And the GI50 (T-47D breast)?
The GI50 was 58.6 µM.

And the TGI (T-47D breast)?
The TGI was over 100 µM.

And the GI50 (EKVX NSCLC)?
The GI50 was 32 µM.

What about the TGI (EKVX NSCLC) of the same compound?
Its TGI is over 100 µM.

What about the GI50 (OVCAR-5 ovarian) of the same compound?
Its GI50 is 76.3 µM.

What about the TGI (OVCAR-5 ovarian) of the same compound?
The TGI was over 100 µM.

What about the GI50 (NCI-H522 lung) of the same compound?
Its GI50 is 45.9 µM.

And the TGI (NCI-H522 lung)?
Its TGI is over 100 µM.

And the GI50 (RXF 393 renal)?
The GI50 was 40.4 µM.

And the TGI (RXF 393 renal)?
The TGI was 92.3 µM.

What about the GI50 (SK-MEL-28 melanoma) of the same compound?
Its GI50 is 42.6 µM.

What about the TGI (SK-MEL-28 melanoma) of the same compound?
Its TGI is over 100 µM.

What about the GI50 (MOLT-4 leukemia) of the same compound?
The GI50 was over 100 µM.

What about the TGI (MOLT-4 leukemia) of the same compound?
The TGI was over 100 µM.

What about the GI50 (MALME-3M melanoma) of the same compound?
The GI50 was 52.3 µM.

And the TGI (MALME-3M melanoma)?
Its TGI is over 100 µM.

What about the GI50 (RPMI-8226 leukemia) of the same compound?
The GI50 was 0.0119 µM.

And the TGI (RPMI-8226 leukemia)?
The TGI was over 100 µM.

And the GI50 (SK-MEL-5 melanoma)?
The GI50 was 36.2 µM.

What about the TGI (SK-MEL-5 melanoma) of the same compound?
Its TGI is over 100 µM.

What about the GI50 (NCI-H23 lung) of the same compound?
Its GI50 is 46.6 µM.

What about the TGI (NCI-H23 lung) of the same compound?
The TGI was over 100 µM.

What about the GI50 (SNB-19 CNS) of the same compound?
The GI50 was over 100 µM.

What about the TGI (SNB-19 CNS) of the same compound?
Its TGI is over 100 µM.

What about the GI50 (HCT-15 colon) of the same compound?
Its GI50 is 17.6 µM.

And the TGI (HCT-15 colon)?
The TGI was over 100 µM.

What about the GI50 (HOP-62 NSCLC) of the same compound?
The GI50 was over 100 µM.

And the TGI (HOP-62 NSCLC)?
The TGI was over 100 µM.

What about the GI50 (786-0 renal) of the same compound?
Its GI50 is 58.5 µM.

What about the TGI (786-0 renal) of the same compound?
The TGI was over 100 µM.

What about the GI50 (SNB-75 CNS) of the same compound?
Its GI50 is over 100 µM.

And the TGI (SNB-75 CNS)?
Its TGI is over 100 µM.

And the GI50 (SK-OV-3 ovarian)?
Its GI50 is over 100 µM.

What about the TGI (SK-OV-3 ovarian) of the same compound?
Its TGI is over 100 µM.

And the GI50 (CAKI-1 renal)?
The GI50 was 31.8 µM.

And the TGI (CAKI-1 renal)?
The TGI was over 100 µM.
